Reference: ChEMBL document CHEMBL5331050, “Spiro[benzoxazine-piperidin]-one derivatives as chitin synthase inhibitors and antifungal agents: Design, synthesis and biological evaluation” (Eur J Med Chem, 2022)
pIC50: −log10 of the molar value. In brackets after ≈: the same amount, converted by molar mass.

What was measured:
[1] = Inhibition of chitin synthase (unknown origin); design: species or system Fungi
Candida albicans [2] = experiment: Antifungal activity against Candida albicans ATCC 76615 assessed as disruption of fungal wall by measuring fungal growth incubated for 24 hrs in the presence of sorbitol; type: functional
Candida albicans [3] = experiment: Synergistic antifungal activity against Candida albicans ATCC 76615 assessed as fractional inhibitory concentration index incubated for 24 hrs in the presence of fluconazole by broth dilution based checkerboard method; type: functional
Aspergillus flavus [4] = experiment: Antifungal activity against Aspergillus flavus ATCC 16870 assessed as fungal growth inhibition incubated for 24 hrs by CLSI protocol based broth microdilution method; type: functional
Aspergillus flavus [5] = experiment: Antifungal activity against Aspergillus flavus ATCC 16870 assessed as disruption of fungal wall by measuring fungal growth incubated for 24 hrs in the presence of sorbitol; type: functional
Cryptococcus neoformans [6] = experiment: Antifungal activity against fluconazole-resistant Cryptococcus neoformans ATCC 208821R assessed as fungal growth inhibition; type: functional
Candida albicans [7] = experiment: Antifungal activity against Candida albicans ATCC 76615 assessed as fungal growth inhibition incubated for 24 hrs by CLSI protocol based broth microdilution method; type: functional
Aspergillus flavus [8] = experiment: Synergistic antifungal activity against Aspergillus flavus ATCC 16870 assessed as fractional inhibitory concentration index incubated for 24 hrs in the presence of fluconazole by broth dilution based checkerboard method; type: functional
Candida albicans [9] = experiment: Antifungal activity against micafungin-resistant Candida albicans ATCC 76615R assessed as fungal growth inhibition; type: functional
Aspergillus fumigatus [10] = experiment: Antifungal activity against Aspergillus fumigatus GIMCC 3.19 assessed as disruption of fungal wall by measuring fungal growth incubated for 24 hrs in the presence of sorbitol; type: functional
[11] = Selectivity ratio of MIC for antifungal activity against Candida albicans ATCC 76615 assessed as disruption of fungal wall by measuring fungal growth incubated for 24 hrs in the presence of sorbitol to MIC for antifungal activity against Candida albicans ATCC 76615 assessed as fungal growth inhibition; type: functional
Cryptococcus neoformans [12] = experiment: Antifungal activity against Cryptococcus neoformans ATCC 208821 assessed as disruption of fungal wall by measuring fungal growth incubated for 24 hrs in the presence of sorbitol; type: functional
Cryptococcus neoformans [13] = experiment: Synergistic antifungal activity against Cryptococcus neoformans ATCC 208821 assessed as fractional inhibitory concentration index incubated for 24 hrs in the presence of fluconazole by broth dilution based checkerboard method; type: functional
Aspergillus flavus [14] = experiment: (§1) Synergistic antifungal activity against Aspergillus flavus ATCC 16870 assessed as fungal growth inhibition incubated for 24 hrs in the presence of fluconazole by broth dilution based checkerboard method; type: functional
Aspergillus fumigatus [15] = experiment: (§2) Synergistic antifungal activity against Aspergillus fumigatus GIMCC 3.19 assessed as fungal growth inhibition incubated for 24 hrs in the presence of fluconazole by broth dilution based checkerboard method; type: functional
Aspergillus fumigatus [16] = experiment: Synergistic antifungal activity against Aspergillus fumigatus GIMCC 3.19 assessed as fractional inhibitory concentration index incubated for 24 hrs in the presence of fluconazole by broth dilution based checkerboard method; type: functional
Aspergillus fumigatus [17] = experiment: Antifungal activity against Aspergillus fumigatus GIMCC 3.19 assessed as fungal growth inhibition incubated for 24 hrs by CLSI protocol based broth microdilution method; type: functional
[18] = Inhibition of Candida tropicalis ATCC 750 chitin synthase using UDP-GlcNAc as substrate incubated for 1 hrs by absorbance based assay
Candida albicans [19] = experiment: (§3) Synergistic antifungal activity against Candida albicans ATCC 76615 assessed as fungal growth inhibition incubated for 24 hrs in the presence of fluconazole by broth dilution based checkerboard method; type: functional
Candida tropicalis = experiment: Inhibition of Candida tropicalis ATCC 750 chitin synthase using UDP-GlcNAc as substrate at 300 ug/ml incubated for 1 hrs by absorbance based assay relative to control; conditions: dose 300.0 µg/ml
Cryptococcus neoformans [20] = experiment: Antifungal activity against Cryptococcus neoformans ATCC 208821 assessed as fungal growth inhibition incubated for 24 hrs by CLSI protocol based broth microdilution method; type: functional
Candida albicans [21] = experiment: Antifungal activity against fluconazole-resistant Candida albicans ATCC 76615R assessed as fungal growth inhibition; type: functional
Cryptococcus neoformans [22] = experiment: (§4) Synergistic antifungal activity against Cryptococcus neoformans ATCC 208821 assessed as fungal growth inhibition incubated for 24 hrs in the presence of fluconazole by broth dilution based checkerboard method; type: functional
Aspergillus fumigatus [23] = experiment: as §2, with “N-(2-chlorophenyl)-4-(6-methoxy-2-oxo-1,2-dihydrospiro[benzo[d][1,3]oxazine-4,4'-piperidin]-1'-yl)-4-oxobut-2-enamide” for “fluconazole”; type: functional
Cryptococcus neoformans [24] = experiment: as §4, with “4-(6-methoxy-2-oxo-1,2-dihydrospiro[benzo[d][1,3]oxazine-4,4'-piperidin]-1'-yl)-N-(4-methoxyphenyl)-4-oxobut-2-enamide” for “fluconazole”; type: functional
Aspergillus flavus [25] = experiment: as §1, with “N-(3-chloro-4-fluorophenyl)-4-(6-methoxy-2-oxo-1,2-dihydrospiro[benzo[d][1,3]oxazine-4,4'-piperidin]-1'-yl)-4-oxobut-2-enamide” for “fluconazole”; type: functional
Cryptococcus neoformans [26] = experiment: as §4, with “N-(2-chlorophenyl)-4-(6-methoxy-2-oxo-1,2-dihydrospiro[benzo[d][1,3]oxazine-4,4'-piperidin]-1'-yl)-4-oxobut-2-enamide” for “fluconazole”; type: functional
Candida albicans [27] = experiment: as §3, with “N-(2-chlorophenyl)-4-(6-methoxy-2-oxo-1,2-dihydrospiro[benzo[d][1,3]oxazine-4,4'-piperidin]-1'-yl)-4-oxobut-2-enamide” for “fluconazole”; type: functional
Aspergillus flavus [28] = experiment: as §1, with “4-(6-methoxy-2-oxo-1,2-dihydrospiro[benzo[d][1,3]oxazine-4,4'-piperidin]-1'-yl)-N-(4-methoxyphenyl)-4-oxobut-2-enamide” for “fluconazole”; type: functional
Candida albicans [29] = experiment: as §3, with “4-(6-methoxy-2-oxo-1,2-dihydrospiro[benzo[d][1,3]oxazine-4,4'-piperidin]-1'-yl)-N-(4-methoxyphenyl)-4-oxobut-2-enamide” for “fluconazole”; type: functional
Aspergillus fumigatus [30] = experiment: as §2, with “N-(4-bromophenyl)-4-(6-methoxy-2-oxo-1,2-dihydrospiro[benzo[d][1,3]oxazine-4,4'-piperidin]-1'-yl)-4-oxobut-2-enamide” for “fluconazole”; type: functional
Aspergillus flavus [31] = experiment: Synergistic antifungal activity against Aspergillus flavus ATCC 16870 assessed as fungal growth inhibition incubated for 24 hrs in the presence of 4-(6-methoxy-2-oxo-1,2-dihydrospiro[benzo[d][1,3]oxazine-4,4'-piperidin]-1'-yl)-4-oxo-N-phenylbut-2-enamide by broth dilution based checkerboard method; type: functional
Aspergillus fumigatus [32] = experiment: as §2, with “4-(6-methoxy-2-oxo-1,2-dihydrospiro[benzo[d][1,3]oxazine-4,4'-piperidin]-1'-yl)-N-(4-methoxyphenyl)-4-oxobut-2-enamide” for “fluconazole”; type: functional
Aspergillus flavus [33] = experiment: as §1, with “N-(4-bromophenyl)-4-(6-methoxy-2-oxo-1,2-dihydrospiro[benzo[d][1,3]oxazine-4,4'-piperidin]-1'-yl)-4-oxobut-2-enamide” for “fluconazole”; type: functional
Aspergillus fumigatus [34] = experiment: as §2, with “4-(6-methoxy-2-oxo-1,2-dihydrospiro[benzo[d][1,3]oxazine-4,4'-piperidin]-1'-yl)-4-oxo-N-phenylbut-2-enamide” for “fluconazole”; type: functional
Candida albicans [35] = experiment: as §3, with “N-(3-chloro-4-fluorophenyl)-4-(6-methoxy-2-oxo-1,2-dihydrospiro[benzo[d][1,3]oxazine-4,4'-piperidin]-1'-yl)-4-oxobut-2-enamide” for “fluconazole”; type: functional
Candida albicans [36] = experiment: as §3, with “N-(4-bromophenyl)-4-(6-methoxy-2-oxo-1,2-dihydrospiro[benzo[d][1,3]oxazine-4,4'-piperidin]-1'-yl)-4-oxobut-2-enamide” for “fluconazole”; type: functional
Aspergillus fumigatus [37] = experiment: as §2, with “N-(3-chloro-4-fluorophenyl)-4-(6-methoxy-2-oxo-1,2-dihydrospiro[benzo[d][1,3]oxazine-4,4'-piperidin]-1'-yl)-4-oxobut-2-enamide” for “fluconazole”; type: functional
Cryptococcus neoformans [38] = experiment: as §4, with “N-(3-chloro-4-fluorophenyl)-4-(6-methoxy-2-oxo-1,2-dihydrospiro[benzo[d][1,3]oxazine-4,4'-piperidin]-1'-yl)-4-oxobut-2-enamide” for “fluconazole”; type: functional
Candida albicans [39] = experiment: as §3, with “4-(6-methoxy-2-oxo-1,2-dihydrospiro[benzo[d][1,3]oxazine-4,4'-piperidin]-1'-yl)-N-(2-methoxy-4-nitrophenyl)-4-oxobut-2-enamide” for “fluconazole”; type: functional
Cryptococcus neoformans [40] = experiment: as §4, with “4-(6-methoxy-2-oxo-1,2-dihydrospiro[benzo[d][1,3]oxazine-4,4'-piperidin]-1'-yl)-4-oxo-N-phenylbut-2-enamide” for “fluconazole”; type: functional
Cryptococcus neoformans [41] = experiment: as §4, with “N-(4-bromophenyl)-4-(6-methoxy-2-oxo-1,2-dihydrospiro[benzo[d][1,3]oxazine-4,4'-piperidin]-1'-yl)-4-oxobut-2-enamide” for “fluconazole”; type: functional
Candida albicans [42] = experiment: Synergistic antifungal activity against Candida albicans ATCC 76615 assessed as fungal growth inhibition incubated for 24 hrs in the presence of 4-(6-methoxy-2-oxo-1,2-dihydrospiro[benzo[d][1,3]oxazine-4,4'-piperidin]-1'-yl)-4-oxo-N-phenylbut-2-enamide by broth dilution based checkerboard method; type: functional
Aspergillus flavus [43] = experiment: as §1, with “4-(6-methoxy-2-oxo-1,2-dihydrospiro[benzo[d][1,3]oxazine-4,4'-piperidin]-1'-yl)-N-(2-methoxy-4-nitrophenyl)-4-oxobut-2-enamide” for “fluconazole”; type: functional
Aspergillus flavus [44] = experiment: as §1, with “N-(2-chlorophenyl)-4-(6-methoxy-2-oxo-1,2-dihydrospiro[benzo[d][1,3]oxazine-4,4'-piperidin]-1'-yl)-4-oxobut-2-enamide” for “fluconazole”; type: functional
Aspergillus fumigatus [45] = experiment: as §2, with “4-(6-methoxy-2-oxo-1,2-dihydrospiro[benzo[d][1,3]oxazine-4,4'-piperidin]-1'-yl)-N-(2-methoxy-4-nitrophenyl)-4-oxobut-2-enamide” for “fluconazole”; type: functional
Cryptococcus neoformans [46] = experiment: as §4, with “4-(6-methoxy-2-oxo-1,2-dihydrospiro[benzo[d][1,3]oxazine-4,4'-piperidin]-1'-yl)-N-(2-methoxy-4-nitrophenyl)-4-oxobut-2-enamide” for “fluconazole”; type: functional

SMILES: Cc1cccc(NC(=O)/C=C/C(=O)NC2Cc3ccccc3NC2=O)c1 (stereo not drawn)
- pIC50 [1]: 4.05

SMILES: COc1ccc2c(c1)C1(CCN(C(=O)/C=C/C(=O)Nc3ccc(Br)cc3)CC1)OC(=O)N2
- MIC (Candida albicans [2]): 256 µg/mL
- fractional inhibitory concentration index (FICI) (Candida albicans [3]): 0.85
- MIC (Aspergillus flavus [4]): 32 µg/mL (≈ 64 µM)
- MIC (Aspergillus flavus [5]): 256 µg/mL
- MIC (Cryptococcus neoformans [6]): 53.3 µg/mL (≈ 107 µM)
- MIC (Candida albicans [7]): 26.7 µg/mL (≈ 53.3 µM)
- fractional inhibitory concentration index (FICI) (Aspergillus flavus [8]): 3.67
- MIC (Candida albicans [9]): 32 µg/mL (≈ 64 µM)
- MIC (Aspergillus fumigatus [10]): 512 µg/mL
- Ratio [11]: 8
- MIC (Cryptococcus neoformans [12]): 256 µg/mL
- fractional inhibitory concentration index (FICI) (Cryptococcus neoformans [13]): 1
- MIC (Aspergillus flavus [14]): 53.3 µg/mL
- MIC (Aspergillus fumigatus [15]): 32 µg/mL
- fractional inhibitory concentration index (FICI) (Aspergillus fumigatus [16]): 1.25
- MIC (Aspergillus fumigatus [17]): 64 µg/mL (≈ 128 µM)
- pIC50 [18]: 3.85
- MIC (Candida albicans [19]): 16 µg/mL
- inhibition (Candida tropicalis): 83%
- MIC (Cryptococcus neoformans [20]): 64 µg/mL (≈ 128 µM)
- MIC (Candida albicans [21]): 32 µg/mL (≈ 64 µM)
- MIC (Cryptococcus neoformans [22]): 32 µg/mL

SMILES: NC(=O)OC[C@H](O)[C@@H](O)[C@H](N)C(=O)N[C@H](C(=O)O)[C@H]1O[C@@H](n2cc(CO)c(=O)[nH]c2=O)[C@H](O)[C@@H]1O [POLYOXIN B]
- MIC (Candida albicans [2]): 512 µg/mL
- MIC (Aspergillus flavus [4]): 64 µg/mL (≈ 126 µM)
- MIC (Aspergillus flavus [5]): > 512 µg/mL
- MIC (Candida albicans [7]): 64 µg/mL (≈ 126 µM)
- MIC (Aspergillus fumigatus [10]): 512 µg/mL
- MIC (Cryptococcus neoformans [12]): > 512 µg/mL
- MIC (Aspergillus fumigatus [17]): 32 µg/mL (≈ 63.1 µM)
- pIC50 [18]: 4.10
- inhibition (Candida tropicalis): 85%
- MIC (Cryptococcus neoformans [20]): 64 µg/mL (≈ 126 µM)

SMILES: OC(Cn1cncn1)(Cn1cncn1)c1ccc(F)cc1F [FLUCONAZOLE]
- MIC (Aspergillus fumigatus [23]): 16 µg/mL
- MIC (Cryptococcus neoformans [24]): 16 µg/mL
- MIC (Aspergillus flavus [25]): 16 µg/mL
- MIC (Aspergillus flavus [4]): 16 µg/mL (≈ 52.2 µM)
- MIC (Cryptococcus neoformans [26]): 4 µg/mL
- MIC (Cryptococcus neoformans [6]): 256 µg/mL (≈ 836 µM)
- MIC (Candida albicans [27]): 4 µg/mL
- MIC (Aspergillus flavus [28]): 16 µg/mL
- MIC (Candida albicans [29]): 16 µg/mL
- MIC (Aspergillus fumigatus [30]): 16 µg/mL
- MIC (Aspergillus flavus [31]): 8 µg/mL
- MIC (Candida albicans [7]): 16 µg/mL (≈ 52.2 µM)
- MIC (Aspergillus fumigatus [32]): 16 µg/mL
- MIC (Aspergillus flavus [33]): 32 µg/mL
- MIC (Aspergillus fumigatus [34]): 4 µg/mL
- MIC (Candida albicans [35]): 16 µg/mL
- MIC (Candida albicans [36]): 4 µg/mL
- MIC (Aspergillus fumigatus [37]): 4 µg/mL
- MIC (Aspergillus fumigatus [17]): 16 µg/mL (≈ 52.2 µM)
- MIC (Cryptococcus neoformans [38]): 4 µg/mL
- MIC (Candida albicans [39]): 16 µg/mL
- MIC (Cryptococcus neoformans [40]): 16 µg/mL
- MIC (Cryptococcus neoformans [41]): 16 µg/mL
- MIC (Candida albicans [42]): 8 µg/mL
- MIC (Aspergillus flavus [43]): 16 µg/mL
- MIC (Cryptococcus neoformans [20]): 32 µg/mL (≈ 104 µM)
- MIC (Aspergillus flavus [44]): 16 µg/mL
- MIC (Candida albicans [21]): 256 µg/mL (≈ 836 µM)
- MIC (Aspergillus fumigatus [45]): 16 µg/mL
- MIC (Cryptococcus neoformans [46]): 16 µg/mL
